Results published in patent US10167258B2, “Inhibitors of mitochondrial pyruvate dehydrogenase kinase isoforms 1-4 and uses thereof” (The Board of Regents of the University of Texas System, priority 2013, dated 2019).

What was measured:
DIO mice [1] = test: Histochemistry of the liver (Oil Red O) of DIO mice; type: in vivo; conditions: 70 mg/kg/day
Description: Histological examination of the liver was performed in the institutional Immunohistochemistry Laboratory. Liver tissue was dissected, grossly trim then fixed by immersion for 48 hrs in 4% Formalin/PBS (4% […], 137 mM NaCl, 2.7 mM KCl and 10 mM phosphate buffer, pH 7.5) at 4° C. Liver samples were then transferred to 10% (w/v) sucrose in PBS and incubate at 4° C. for 24 hrs. Tissues were incubated in 18% sucrose in PBS at 4° C. for 24 hours. Finally, samples were transferred to a fresh 18% sucrose solution and embedded in OCT (Optimal cutting temperature compound), cryo-sectioned and stained with Oil Red O.

PDC = test: Assay for PDC activity in tissues of treated DIO mice; type: in vivo; conditions: single dose 70 mg/kg IP, 10 h
Description: (§1) Six- to eight-week old C57BL/6J male mice were obtained from the local campus breeding colony at UT Southwestern Medical Center (Dallas, Tex.) and randomized into two groups: vehicle- and PS10-treated. Prior to the treatment, mice were fed with a 60% high-fat diet, which contained 32% saturated and 68% unsaturated fat (catalog number: D12492, Research Diet Inc. New Brunswick, N.J.), for eight to ten weeks to produce DIO animals. PS-10 was dissolved in 100% DMSO and then diluted to make a 10% DMSO aqueous solution containing 17.5% (w/v) (2-hydroxypropyl)-β-cyclodextrin for delivery. Animals were dosed at mid-day by intraperitoneal (IP) injections at 70 mg/kg using 1-ml syringe and 30-gauge needle. The length of the treatment is indicted in each experiment. At 10 h after the last injection, animals were euthanized using carbon dioxide asphyxiation followed by cervical dislocation and dissection. Blood was harvested by cardiac puncture and stored on ice. Acidified citrate dextrose (ACD) was used as an anticoagulant. Immediately after blood collection, heart, liver, kidneys and both hind-leg quadriceps muscles were removed and snap frozen in liquid nitrogen. Average ischemia time before organ harvest was about 2 to 3 min. Blood was centrifuged in an Eppendorf 5415R refrigerated microcentrifuge at 9,300×g for 5 min to isolate plasma, which was subsequently stored at −80° C.
Liquid nitrogen-stored tissue samples were removed and thawed on ice. Individual kidneys (200-250 mg), hearts (200-300 mg), muscle (200-300 mg) and liver (250-400 mg) tissues samples were manually homogenized in an ice-chilled glass homogenizer containing 1 ml of the homogenization buffer. The homogenization buffer contained 30 mM KPi, pH 7.5, 3 mM EDTA, 5 mM DTT, 1 mM benzamidine, 3% fetal bovine serum, 5% Triton X-100 and 1 mM leupeptin. Samples were transferred to ice-cold 10 ml polycarbonate tubes and spun in an ultracentrifuge at 25,000×g for 10 min to pellet cell and tissue debris. Supernatants were removed and stored on ice until diluted (1:3 for muscle, 1:5 for liver and 1:20 for kidneys and heart tissues) with a dilution buffer containing 50 mM HEPES, pH 7.5, 1.0 mM DTT, 0.1% Triton X-100, 5 mM DCA, 50 mM NaF, 3% fetal bovine serum and 1 mM leupeptin. The diluted samples (50 μl) were placed in each well of a 24-well plate containing 310 μl of the reaction mixture. A micro-bridge (Hampton Research) was pre-set into each well holding one piece of filter wick pre-soaked with 2 M NaOH. […] Assay plates were incubated further at 37° C. for 45 min. ^14CO2-trapped on 2 M NaOH soaked filter wicks were counted in a liquid scintillation counter. Total protein concentrations in the samples were determined by using BCA protein assay kit (Thermo fisher Scientific, Rockford, Ill.).

PDP1 = target: T1, PDP1 (Homo sapiens, UniProt Q9P0J1); test: PDP1 activity in vitro; type: biochemical; conditions: at up to 1 mM
T1 sequence (Q9P0J1 72-537): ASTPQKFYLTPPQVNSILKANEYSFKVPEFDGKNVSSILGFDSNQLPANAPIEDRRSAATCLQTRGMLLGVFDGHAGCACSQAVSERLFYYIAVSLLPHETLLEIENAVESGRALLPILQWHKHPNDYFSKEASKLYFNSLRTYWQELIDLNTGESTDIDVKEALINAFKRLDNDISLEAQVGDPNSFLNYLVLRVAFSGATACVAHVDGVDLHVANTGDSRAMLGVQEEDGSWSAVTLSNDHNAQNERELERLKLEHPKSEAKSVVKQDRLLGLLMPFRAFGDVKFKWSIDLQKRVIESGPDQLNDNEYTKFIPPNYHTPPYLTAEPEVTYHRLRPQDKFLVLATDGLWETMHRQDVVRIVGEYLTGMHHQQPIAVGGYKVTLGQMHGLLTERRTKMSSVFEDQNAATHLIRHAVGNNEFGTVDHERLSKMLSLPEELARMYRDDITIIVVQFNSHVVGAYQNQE

[2] = Half-life in vitro in hepatic S9 fractions; type: in vitro ADME; conditions: data not shown
DIO mice [3] = test: Glucose tolerance test in DIO mice; type: in vivo; conditions: 70 mg/kg/day IP for 4 weeks, 1.5 g/kg glucose challenge
Description: as §1
Mice were fasted for 6 hours after compound treatment. Ten hours after compound administration, 1.5 g/kg of glucose was delivered intraperitoneally to mice. Tail vein serum samples were collected immediately before and 15, 30, 60 and 120 minutes after the glucose challenge. The glucose levels in serum samples were determined by a glucose meter.

[4] = Food intake, body weight and fat mass of DIO mice; type: in vivo; conditions: 70 mg/kg/day
Description: as §1

With `O=S(=O)(c1ccc(O)cc1O)N1Cc2cc(O)cc(O)c2C1` [PS10, 2-((2,4-dihydroxyphenyl)sulfonyl)isoindoline-4,6-diol] as the compound, how does the “fat in the liver, Oil Red O stain” value (DIO mice [1]) read?
The value was “larger amounts of fat were present in the liver of the vehicle-treated DIO mice compared with PS10-treated”.

And the “PDC activity in heart, fold over vehicle-treated” value (PDC)?
The value was 11 fold.

What about the “PDC activity in kidneys, fold enhancement over vehicle-treated” value (PDC) of the same compound?
The value was 1.4 fold.

And the “PDC activity in liver, fold over vehicle-treated” value (PDC)?
The value was 23 fold.

What about the “PDC activity in quadriceps muscle vs vehicle-treated” value (PDC) of the same compound?
Its value is “no difference”.

And the “effect on PDP1 activity in vitro” value (PDP1)?
Its value is “without effect”.

And the half-life [2]?
Its half-life is over 4 h.

And the “plasma glucose level at 0 min” value (DIO mice [3])?
The value was 168 mg/dL.

What about the “plasma glucose level at 30 min” value (DIO mice [3]) of the same compound?
Its value is 312 mg/dL.

What about the “plasma glucose level at 120 min” value (DIO mice [3]) of the same compound?
Its value is 163 mg/dL.

And the “body weight vs vehicle-treated” value [4]?
Its value is “no significant differences”.

And the fat-mass vs vehicle-treated [4]?
Its fat-mass vs vehicle-treated is “reduction”.

What about the “food intake vs vehicle-treated” value [4] of the same compound?
The value was “no significant differences”.
